From patent US20130067618A1, “METHODS AND COMPOSITIONS FOR WEED CONTROL” (priority 2011, published 2013)

Assays:
[1] = tested on: Amaranthus palmeri plants (Palmer amaranth A3); assay: Tiling test of pooled trigger molecules to ALS large subunit gene, followed by Staple; visual injury; type: in vivo
Experimental: Approximately four-week old (3-4 inches tall) greenhouse grown Amaranthus palmeri plants (Palmer amaranth A3) were used in these assays. The plants were spray treated in a greenhouse with the ALStile composition, each composition having six trigger oligonucleotides (Table 3) and a formulation comprising 1 percent Silwet L-77 solution, 2 percent ammonium sulfate and 20 mM sodium phosphate and the concentration of each oligonucleotide was approximately 4 nmol. Spray solutions were prepared the same day as spraying and applied using a track sprayer with a FLATfan nozzle 9501E at 165 psi (pounds/square inch) at a rate of 93 g/ha (grams/hectare). The dsDNA ALStile pool oligonucleotide composition was applied and followed 24 hours later by the herbicide treatment, Staple® (2-Chloro-6-{(4,6-dimethoxy-2-pyrimidinyl)thio}benzoic acid sodium salt, pyrithiobac sodium 85 percent, Dupont, Wilmington, Del.) at 108 g/ha (grams per hectare), five replications per treatment and the data is presented as a visual score of percentage injury determined fourteen days after herbicide application.

[2] = tested on: Amaranthus palmeri plants (glyphosate-resistant Palmer amaranth, "R-22"); assay: Topical ssDNA ALS2 promoter oligonucleotide pool followed by Staple herbicide; plant height; type: in vivo; settings: testing repeated with individual oligonucleotides
Experimental: In this example, growing Amaranthus palmeri plants were treated with a topically applied composition for inducing modulation of a target gene in a plant including (a) an agent for conditioning of a plant to transfer of the polynucleotides and (b) polynucleotides including at least one ssDNA polynucleotide strand including at least one segment of 18-21 contiguous nucleotides of the target gene in sense (S) orientation. […]
Approximately four-week old greenhouse grown Amaranthus palmeri plants (glyphosate-resistant Palmer amaranth, “R-22”) were used in this assays. […] The ssDNA ALS2 oligonucleotide composition was applied and followed 24 hours later by the herbicide treatment, Staple® (2-Chloro-6-{(4,6-dimethoxy-2-pyrimidinyl)thio}benzoic acid sodium salt, pyrithiobac sodium 85 percent, Dupont, Wilmington, Del.) at ¼×(27 g ai/ha (grams active ingredient per hectare) rate for the ssDNA ALS2 oligonucleotide treated plants and 1× rate (108 g ai/ha) for the untreated plants, five replications per treatment and the data is presented as percentage height of the untreated control. Plant height is determined at seven days after herbicide treatment.

[3] = tested on: ALS inhibitor resistant Palmer amaranth plants (A3, ALS inhibitor herbicide biotype); assay: ALS_pro_S1 trigger followed by Staple or Classic herbicide on ALS inhibitor resistant plants; type: in vivo, Amaranthus palmeri; settings: dsDNA trigger, FIG. 2
Experimental: Thus, ssDNA ALS2 oligonucleotide treatment followed by Staple® at 1 h and 24 h caused 50 percent and 60 percent growth reduction, relative to the untreated control, while Staple® alone at 27 (1 h and 24 h) and 108 (24 h) g ai/ha caused 35 percent, 30 percent, and 40 percent growth reduction, respectively. […] ALS_pro 51 dsDNA trigger molecule was applied to ALS inhibitor resistant Palmer amaranth plants (A3, ALS inhibitor herbicide biotype) followed by ALS inhibitor herbicides 1× Staple® at 108 g ai/ha or 2× Classic® (Chlorimuron Ethyl 25DF, Dupont, Willmington, Del., 2× rate is 70 g ai/ha) at +COC (crop oil concentrate) 24 hr after trigger application.

[4] = trigger pool (about 4 nmol each) or formulation, Staple @ 108 g/ha 24 h later, 14 days after herbicide, A3

In the case of “ALSpro_S1: trigger TCTTCTCCGACTCTCACAA, SEQ ID NO:4202; ssDNA in Table 2, dsDNA in b81, dsRNA in Table 3 (chemistry not fully specified; listed as Amaranthus palmeri)”, the “herbicide enhancing activity relative to the formulation control” value ([1]; A3 biotype, Staple @ 108 g/ha) is reported as “herbicide enhancing activity”, the “visual score of percentage injury, avg” value ([1]; average of five replications, trigger pool or formulation, Staple @ 108 g/ha 24 h later, 14 days after herbicide, A3) is reported as 100% and the “visual score of percentage injury, Rep1” value [1, 4] is reported as 100%. The “visual score of percentage injury, Rep2” value [1, 4] was 100%, the “visual score of percentage injury, Rep3” value [1, 4] was 100% and the “visual score of percentage injury, Rep4” value [1, 4] was 100%. The “visual score of percentage injury, Rep5” value [1, 4] was 100%, the “ALS inhibitor herbicide enhancing activity of the individual trigger molecule” value [2] was “effective trigger molecule” and the “improvement of herbicide activity on ALS inhibitor resistant plants” value ([3]; then 1x Staple at 108 g ai/ha 24 hr after trigger) was “substantially improved the activity”. The “improvement of herbicide activity on ALS inhibitor resistant plants” value ([3]; then 2x Classic (70 g ai/ha) + COC 24 hr after trigger) was “substantially improved the activity”.
